“And” between values parts separate entries of the source, which are not always exact repeats. Identical values can stand only once. Toxic doses and inconclusive results are not listed. How the source made its calls: active means survival T/C of 150% or more; inactive means T/C below 125% in these data.
Test system: BDF1 mice, B16 melanoma ip, median survival T/C
Assay: NCI In Vivo Anticancer Drug Screen. Data for tumor model B16 Melanoma (intraperitoneal) in B6D2F1 (BDF1) mice
Settings: endpoint: median survival time, higher = longer survival
Summary of the method: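 Tumor-bearing mice received test compound or vehicle. Survival or tumor size was then measured in both groups. The treated-group figure was divided by the control-group figure.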

[1] = dose: 6.25 mg/kg/injection, schedule: Q01DX009 (ip), vehicle: saline
[2] = dose: 12.5 mg/kg/injection, schedule: Q01DX009 (ip), vehicle: saline
[3] = dose: 25.0 mg/kg/injection, schedule: Q01DX009 (ip), vehicle: saline
[4] = dose: 50.0 mg/kg/injection, schedule: Q01DX009 (ip), vehicle: saline
[5] = dose: 50.0 mg/kg/injection, schedule: Q01DX009 (ip), vehicle: saline with Tween-80
[6] = dose: 100.0 mg/kg/injection, schedule: Q01DX009 (ip), vehicle: saline with Tween-80

Measured: T/C

FC(F)(F)c1ccc2c(c1)N(CCCN1CCN(CCN3CCOCC3)CC1)c1ccccc1S2
inactive: dose: 0.37 mg/kg/injection, schedule: Q01DX009 (ip), vehicle: saline 97 % of control | dose: 0.75 mg/kg/injection, schedule: Q01DX009 (ip), vehicle: saline 87 % of control | dose: 1.5 mg/kg/injection, schedule: Q01DX009 (ip), vehicle: saline 115 % of control | dose: 3.0 mg/kg/injection, schedule: Q01DX009 (ip), vehicle: saline 112 % of control

CN(C)CCCN1c2ccccc2CCc2ccc(Cl)cc21
inactive: [1] 101 % of control | [2] 108 % of control | [3] 115 % of control | [4] 98 % of control

C=CCNCCN1CCN(CCCN2c3ccccc3Sc3ccc(C(F)(F)F)cc32)CC1
inactive: [1] 105 % of control | dose: 9.37 mg/kg/injection, schedule: Q04DX003 (ip), vehicle: saline 100 % of control | [2] 110 % of control | dose: 18.75 mg/kg/injection, schedule: Q04DX003 (ip), vehicle: saline 97 % of control | dose: 55.0 mg/kg/injection, schedule: Q04DX003 (ip), vehicle: saline 91 % of control

CN(C)S(=O)(=O)C(C)(C)c1ccccc1
inactive: [5] 90 % of control | [6] 93 % of control | dose: 200.0 mg/kg/injection, schedule: Q01DX009 (ip), vehicle: saline with Tween-80 95 % of control

Nc1c(S(=O)(=O)O)cc(Nc2ccccc2)c2c1C(=O)c1ccccc1C2=O
inactive: [3] 121 % of control | [4] 115 % of control | dose: 100.0 mg/kg/injection, schedule: Q01DX009 (ip), vehicle: saline 115 % of control

Cc1cccc(C)c1NC(=O)Nc1ccc(Cl)c(Cl)c1
inactive: dose: 25.0 mg/kg/injection, schedule: Q01DX009 (ip), vehicle: other 95 % of control | dose: 50.0 mg/kg/injection, schedule: Q01DX009 (ip), vehicle: other 99 % of control | dose: 100.0 mg/kg/injection, schedule: Q01DX009 (ip), vehicle: other 87 % of control and 103 % of control

Brc1ccc(C=C2c3ccccc3-c3ccccc32)cc1
inactive: dose: 100.0 mg/kg/injection, schedule: Q04DX003 (ip), vehicle: Klucel (hydroxypropylcellulose) (HPC) 97 % of control | dose: 200.0 mg/kg/injection, schedule: Q04DX003 (ip), vehicle: Klucel (hydroxypropylcellulose) (HPC) 105 % of control | dose: 400.0 mg/kg/injection, schedule: Q04DX003 (ip), vehicle: Klucel (hydroxypropylcellulose) (HPC) 102 % of control

CC1(C)N=C(N)N=C(N)N1c1ccc(OCCCNC(=O)Nc2cccc(S(=O)(=O)F)c2)c(Cl)c1
inactive: [3] 102 % of control | [4] 124 % of control

CCCCCCCCCCCCCCCCOc1ccccc1C(C)=O
inactive: dose: 25.0 mg/kg/injection, schedule: Q01DX009 (ip), vehicle: saline with Tween-80 92 % of control | [5] 92 % of control | [6] 89 % of control | dose: 400.0 mg/kg/injection, schedule: Q01DX009 (ip), vehicle: saline with Tween-80 100 % of control

O=C1CN=C(c2ccccc2Cl)c2cc(Cl)ccc2N1
inactive: dose: 0.01 mg/kg/injection, schedule: Q01DX009 (ip), vehicle: Klucel (hydroxypropylcellulose) (HPC) 100 % of control | dose: 0.02 mg/kg/injection, schedule: Q01DX009 (ip), vehicle: Klucel (hydroxypropylcellulose) (HPC) 86 % of control | dose: 0.04 mg/kg/injection, schedule: Q01DX009 (ip), vehicle: Klucel (hydroxypropylcellulose) (HPC) 86 % of control | dose: 0.09 mg/kg/injection, schedule: Q01DX009 (ip), vehicle: Klucel (hydroxypropylcellulose) (HPC) 86 % of control | dose: 0.39 mg/kg/injection, schedule: Q01DX009 (ip), vehicle: Klucel (hydroxypropylcellulose) (HPC) 91 % of control | dose: 0.78 mg/kg/injection, schedule: Q01DX009 (ip), vehicle: Klucel (hydroxypropylcellulose) (HPC) 88 % of control | dose: 1.56 mg/kg/injection, schedule: Q01DX009 (ip), vehicle: Klucel (hydroxypropylcellulose) (HPC) 86 % of control | dose: 3.12 mg/kg/injection, schedule: Q01DX009 (ip), vehicle: Klucel (hydroxypropylcellulose) (HPC) 89 % of control | dose: 200.0 mg/kg/injection, schedule: Q01DX009 (ip), vehicle: Klucel (hydroxypropylcellulose) (HPC) 90 % of control | dose: 0.6 micrograms/kg/injection, schedule: Q01DX009 (ip), vehicle: Klucel (hydroxypropylcellulose) (HPC) 111 % of control | dose: 1.2 micrograms/kg/injection, schedule: Q01DX009 (ip), vehicle: Klucel (hydroxypropylcellulose) (HPC) 104 % of control | dose: 2.5 micrograms/kg/injection, schedule: Q01DX009 (ip), vehicle: Klucel (hydroxypropylcellulose) (HPC) 105 % of control | dose: 5.0 micrograms/kg/injection, schedule: Q01DX009 (ip), vehicle: Klucel (hydroxypropylcellulose) (HPC) 95 % of control | dose: 10.0 micrograms/kg/injection, schedule: Q01DX009 (ip), vehicle: Klucel (hydroxypropylcellulose) (HPC) 112 % of control
